According to ChEMBL document CHEMBL1201862, “PubChem BioAssay data set” (2004):
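Step 1: Grow cells in 96-well plates. Step 2: Expose to compound for 48 hours at 5 concentrations. Step 3: Interpolate endpoints linearly; if unreached, use highest concentration. GI50 = concentration required for 50% inhibition of growth.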 Activity calls are given as the source filed them. Rule as the data show it: active = GI50 up to about 1.1 µM and inactive = higher.

Key:
Assay in all cases: NCI-60 cell line screen, 48 h
[1] = test system: HOP-62
[2] = test system: NCI-H522
[3] = test system: A498
[4] = test system: CCRF-CEM
[5] = test system: CAKI-1
[6] = test system: SF-268
[7] = test system: OVCAR-4
[8] = test system: SNB-19
[9] = test system: PC-3
[10] = test system: SN12C
[11] = test system: MCF7
[12] = test system: SNB-75
[13] = test system: UACC-257
[14] = test system: BT-549
[15] = test system: HCC 2998
[16] = test system: LOX IMVI
[17] = test system: EKVX
[18] = test system: COLO 205
[19] = test system: 786-0
[20] = test system: RPMI-8226

| Structure (SMILES) | GI50 [1] | GI50 [2] | GI50 [3] | GI50 [4] | GI50 [5] | GI50 [6] | GI50 [7] | GI50 [8] | GI50 [9] | GI50 [10] | GI50 [11] | GI50 [12] | GI50 [13] | GI50 [14] | GI50 [15] | GI50 [16] | GI50 [17] | GI50 [18] | GI50 [19] | GI50 [20] |
| --- | --- | --- | --- | --- | --- | --- | --- | --- | --- | --- | --- | --- | --- | --- | --- | --- | --- | --- | --- | --- |
| COc1ccc(OC)c2c(=S)c3ccccc3[nH]c12 | > 100 µM (inactive) | 49.1 µM (inactive) | > 92.3 µM (inactive) | 35.3 µM (inactive) | > 100 µM (inactive) | > 86.1 µM (inactive) | > 100 µM (inactive) | > 100 µM (inactive) | 78.5 µM (inactive) | > 100 µM (inactive) | 36.7 µM (inactive) | > 79.6 µM (inactive) | > 73.8 µM (inactive) | > 100 µM (inactive) | > 100 µM (inactive) | 46.8 µM (inactive) | > 90.2 µM (inactive) | 55.2 µM (inactive) | > 91.8 µM (inactive) | 37.9 µM (inactive) |
| O=C(O)Cc1nc[nH]c1C(=O)O | > 100 µM (inactive) | > 100 µM (inactive) | > 100 µM (inactive) | > 100 µM (inactive) | > 100 µM (inactive) | > 100 µM (inactive) | > 100 µM (inactive) | > 100 µM (inactive) | > 100 µM (inactive) | > 100 µM (inactive) | > 100 µM (inactive) | > 100 µM (inactive) | > 100 µM (inactive) | > 100 µM (inactive) | > 100 µM (inactive) | > 100 µM (inactive) | > 100 µM (inactive) | > 100 µM (inactive) | > 100 µM (inactive) | > 100 µM (inactive) |
| C=C1CC/C=C(\C)CCC[C@H](C)[C@@H](O)[C@@H]2OC(=O)C(=C)[C@@H]2C[C@H]1O | 16 µM (inactive) | 1.84 µM (inactive) | 66.4 µM (inactive) | 1.14 µM (inactive) | 3.94 µM (inactive) | 8.26 µM (inactive) | 19.1 µM (inactive) | 14.8 µM (inactive) | 10 µM (inactive) | 5.93 µM (inactive) | 4 µM (inactive) | 12 µM (inactive) | 9.77 µM (inactive) | 0.288 µM (active) | 18.4 µM (inactive) | 3.69 µM (inactive) | 5.73 µM (inactive) | 2.83 µM (inactive) | 3.8 µM (inactive) | 3.52 µM (inactive) |
| CCOC(=O)c1c(SCCN(CC)CC)n(-c2ccccc2)c(=S)n(-c2ccccc2)c1=O | 17.3 µM (inactive) | 1.56 µM (inactive) | 15.2 µM (inactive) | 1.26 µM (inactive) | 2.16 µM (inactive) | 4.56 µM (inactive) | 9.66 µM (inactive) | 17.9 µM (inactive) | 2.05 µM (inactive) | 1.91 µM (inactive) | 1.27 µM (inactive) | 8.81 µM (inactive) | 2.28 µM (inactive) | 7.13 µM (inactive) | 1.73 µM (inactive) | 1.95 µM (inactive) | 9.59 µM (inactive) | 2.5 µM (inactive) | 1.77 µM (inactive) | 0.635 µM (active) |
| O=CC(I)=C(c1ccccc1)c1ccccc1 | 18.1 µM (inactive) | 16.2 µM (inactive) | 20.7 µM (inactive) | 15.3 µM (inactive) | 16.2 µM (inactive) | 21.3 µM (inactive) | 13.4 µM (inactive) | 15.7 µM (inactive) | 15.2 µM (inactive) | 20.7 µM (inactive) | 16.3 µM (inactive) | 17.1 µM (inactive) | 20.4 µM (inactive) | 15.1 µM (inactive) | 19.7 µM (inactive) | 9.51 µM (inactive) | 18.9 µM (inactive) | 18.3 µM (inactive) | 14.8 µM (inactive) | 8.51 µM (inactive) |
| CCOC1C=CC(=O)C(CO)O1 (stereo not given) | 13.2 µM (inactive) | 1.67 µM (inactive) | 26.2 µM (inactive) | 1.88 µM (inactive) | 13.4 µM (inactive) | 14.1 µM (inactive) | 8.97 µM (inactive) | 19.7 µM (inactive) | 13.8 µM (inactive) | 13.3 µM (inactive) | 4.68 µM (inactive) | 15.3 µM (inactive) | 5.86 µM (inactive) | 11.6 µM (inactive) | 17.4 µM (inactive) | 5.58 µM (inactive) | 14.3 µM (inactive) | 13.4 µM (inactive) | 4.26 µM (inactive) | 2.14 µM (inactive) |
| CC(C)(C)OC(=O)NC(Cc1ccc(OCc2ccccc2)cn1)C(N)=O (stereo not given) | > 100 µM (inactive) | 80 µM (inactive) | > 100 µM (inactive) | > 100 µM (inactive) | > 100 µM (inactive) | > 100 µM (inactive) | 45.7 µM (inactive) | > 100 µM (inactive) | > 100 µM (inactive) | > 100 µM (inactive) | 46.3 µM (inactive) | > 100 µM (inactive) | 75.2 µM (inactive) | > 100 µM (inactive) | > 100 µM (inactive) | > 100 µM (inactive) | > 100 µM (inactive) | > 100 µM (inactive) | > 100 µM (inactive) | > 100 µM (inactive) |
| FC(F)(F)c1ccccc1N1CCN(c2nc(-c3cccs3)nc3ccc(Br)cc23)CC1 | 50.4 µM (inactive) | 35 µM (inactive) | 71.3 µM (inactive) | 0.581 µM (active) | 21.6 µM (inactive) | 48.8 µM (inactive) | 5.16 µM (inactive) | 50.7 µM (inactive) | 11.7 µM (inactive) | 45.8 µM (inactive) | 1.06 µM (active) | 24.9 µM (inactive) | 37.6 µM (inactive) | 50 µM (inactive) | 4.58 µM (inactive) | 34.7 µM (inactive) | 24.4 µM (inactive) | 23.4 µM (inactive) | 38.2 µM (inactive) | 11.2 µM (inactive) |
| COC(=O)[C@]12CC=C3O[C@@H]4OC5(CCCCC5)O[C@@H]4[C@H]3C1C(=O)C=CC2=O (stereo not given in full) | 21 µM (inactive) | 5.53 µM (inactive) | 17.9 µM (inactive) | 4.13 µM (inactive) | 15.9 µM (inactive) | 3.97 µM (inactive) | 17.1 µM (inactive) | 38.3 µM (inactive) | 24.9 µM (inactive) | 18.4 µM (inactive) | 16 µM (inactive) | 18.8 µM (inactive) | 16.3 µM (inactive) | 19.2 µM (inactive) | 17.2 µM (inactive) | 16.8 µM (inactive) | 33.2 µM (inactive) | 15.7 µM (inactive) | 17 µM (inactive) | 7.64 µM (inactive) |
| Cc1c2cc[n+](C)cc2c(C)c2c1sc1ccccc12 | 0.452 µM (active) | 0.661 µM (active) | 1.45 µM (inactive) | 0.776 µM (active) | 3.46 µM (inactive) | 0.199 µM (active) | 3.4 µM (inactive) | 0.205 µM (active) | 1.48 µM (inactive) | 0.132 µM (active) | 1.3 µM (inactive) | 0.199 µM (active) | 1.94 µM (inactive) | 0.294 µM (active) | 1.44 µM (inactive) | 4.06 µM (inactive) | 3.01 µM (inactive) | 1.07 µM (active) | 0.204 µM (active) | 1.22 µM (inactive) |
| COC(=O)[C@H](COC(C)(C)C)NC(=O)N[C@H](C)c1ccccc1 | > 100 µM (inactive) | > 100 µM (inactive) | > 100 µM (inactive) | > 100 µM (inactive) | > 100 µM (inactive) | > 100 µM (inactive) | > 100 µM (inactive) | > 100 µM (inactive) | > 100 µM (inactive) | > 100 µM (inactive) | > 100 µM (inactive) | > 100 µM (inactive) | > 100 µM (inactive) | > 100 µM (inactive) | > 100 µM (inactive) | > 100 µM (inactive) | > 100 µM (inactive) | > 100 µM (inactive) | > 100 µM (inactive) | > 100 µM (inactive) |
| COC(=O)c1cc(S(=O)(=O)NC2=NNC(C)CN2)c(S)cc1Cl (stereo not given) | > 100 µM (inactive) | 19.5 µM (inactive) | 34.5 µM (inactive) | 84.1 µM (inactive) | > 100 µM (inactive) | 13.5 µM (inactive) | 33.9 µM (inactive) | 85.1 µM (inactive) | 42.8 µM (inactive) | > 100 µM (inactive) | 42 µM (inactive) | 24.7 µM (inactive) | > 100 µM (inactive) | > 100 µM (inactive) | 42.3 µM (inactive) | 37.5 µM (inactive) | 90.2 µM (inactive) | 52.7 µM (inactive) | 56.1 µM (inactive) | 31.2 µM (inactive) |
| O=C(O)c1cccc(OCCOc2cccc(C(=O)O)c2[N+](=O)[O-])c1[N+](=O)[O-] | > 100 µM (inactive) | > 100 µM (inactive) | > 100 µM (inactive) | > 100 µM (inactive) | > 100 µM (inactive) | > 100 µM (inactive) | > 100 µM (inactive) | > 100 µM (inactive) | > 100 µM (inactive) | > 100 µM (inactive) | > 100 µM (inactive) | > 100 µM (inactive) | > 100 µM (inactive) | > 100 µM (inactive) | > 100 µM (inactive) | > 100 µM (inactive) | > 100 µM (inactive) | > 100 µM (inactive) | > 100 µM (inactive) | > 100 µM (inactive) |
| CC[C@H](C)[C@H]1NC(=O)[C@@H](NC(=O)[C@@H](CC(C)C)N(C)C(=O)C2CCCN2C(=O)[C@H](C)O)[C@@H](C)OC(=O)[C@H](Cc2ccccc2)N(C)C(=O)[C@@H]2CCCN2C(=O)[C@H](CC(C)C)NC(=O)[C@@H](C)C(=O)[C@H](C(C)C)OC(=O)C[C@@H]1O (stereo not given in full) | < 0.00625 µM (active) | < 0.00625 µM (active) | < 0.00625 µM (active) | < 0.00625 µM (active) | < 0.00625 µM (active) | < 0.00625 µM (active) | < 0.00625 µM (active) | < 0.00625 µM (active) | < 0.00625 µM (active) | < 0.00625 µM (active) | < 0.00625 µM (active) | < 0.00625 µM (active) | < 0.00625 µM (active) | < 0.00625 µM (active) | < 0.00625 µM (active) | < 0.00625 µM (active) | < 0.00625 µM (active) | < 0.00625 µM (active) | < 0.00625 µM (active) | < 0.00625 µM (active) |
